The supplement of paper PMC10307832

How the values were obtained:
Assay in all cases: relative viability (nuclei count vs DMSO), 5 days (fraction); higher = more cells survive
NCI-H647 = tested on: NCI-H647
Outline: (§1)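 A single step with final 0.05% Triton X-100, 1% formaldehyde and 1 ug/ml Hoechst fixed the cells and stained nuclei 5 days after treatment. Lung cancer cell lines in 1536-well plates had been treated by pin tool the day after seeding with one drug alone or a fixed anchor-drug dose plus five library-drug doses (not always all listed) in √10 steps, and nuclei were counted on 4× images. Relative viability is the ratio of nuclei in treated wells to nuclei in vehicle wells, taken as the median of duplicate plates.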

HOP-62 = tested on: HOP-62
Outline: as §1

COR-L23 = tested on: COR-L23
Outline: as §1

LC-2-ad = tested on: LC-2-ad
Outline: as §1

NCI-H1395 = tested on: NCI-H1395
Outline: as §1

NCI-H1666 = tested on: NCI-H1666
Outline: as §1

NCI-H2170 = tested on: NCI-H2170
Outline: as §1

CAL-12T = tested on: CAL-12T
Outline: as §1

LCLC-103H = tested on: LCLC-103H
Outline: as §1

NCI-H2228 = tested on: NCI-H2228
Outline: as §1

NCI-H1651 = tested on: NCI-H1651
Outline: as §1

ABC-1 = tested on: ABC-1
Outline: as §1

NCI-H2085 = tested on: NCI-H2085
Outline: as §1

NCI-H661 = tested on: NCI-H661
Outline: as §1

NCI-H1993 = tested on: NCI-H1993
Outline: as §1

NCI-H23 = tested on: NCI-H23
Outline: as §1

NCI-H520 = tested on: NCI-H520
Outline: as §1

201T = tested on: 201T
Outline: as §1

NCI-H2347 = tested on: NCI-H2347
Outline: as §1

NCI-H838 = tested on: NCI-H838
Outline: as §1

NCI-H1355 = tested on: NCI-H1355
Outline: as §1

HCC-44 = tested on: HCC-44
Outline: as §1

NCI-H322M = tested on: NCI-H322M
Outline: as §1

For O=C(O)CCCCC(CCSCc1ccccc1)SCc1ccccc1 (stereo not given) [CPI-613] + O=C(c1cc(Cc2n[nH]c(=O)c3ccccc23)ccc1F)N1CCN(C(=O)C2CC2)CC1 [Olaparib] (partner 8 µM), the relative viability (NCI-H647; first compound 5 µM) was 0.426, the relative viability (NCI-H647; first compound 15.81 µM) was 0.528 and the relative viability (NCI-H647; first compound 50 µM) was 0.331. For the same molecule, the relative viability (NCI-H647; first compound 158.11 µM) was 0.0348, the relative viability (NCI-H647; first compound 500 µM) was 0.0133 and the relative viability (HOP-62; first compound 5 µM) was 0.298. It also gave a relative viability (HOP-62; first compound 15.81 µM) of 0.471, a relative viability (HOP-62; first compound 50 µM) of 0.368 and a relative viability (HOP-62; first compound 158.11 µM) of 0.459. For the same molecule, the relative viability (HOP-62; first compound 500 µM) was 0.459, the relative viability (COR-L23; first compound 5 µM) was 0.369 and the relative viability (COR-L23; first compound 15.81 µM) was 0.299. It also gave a relative viability (COR-L23; first compound 50 µM) of 0.389, a relative viability (COR-L23; first compound 158.11 µM) of 0.175 and a relative viability (COR-L23; first compound 500 µM) of 0.0294. For the same molecule, the relative viability (LC-2-ad; first compound 5 µM) was 0.629, the relative viability (LC-2-ad; first compound 15.81 µM) was 0.634 and the relative viability (LC-2-ad; first compound 50 µM) was 0.653. The relative viability (LC-2-ad; first compound 158.11 µM) was 0.214, the relative viability (LC-2-ad; first compound 500 µM) was 0.0817 and the relative viability (NCI-H1395; first compound 5 µM) was 0.473. The relative viability (NCI-H1395; first compound 15.81 µM) was 0.479, the relative viability (NCI-H1395; first compound 50 µM) was 0.469 and the relative viability (NCI-H1395; first compound 158.11 µM) was 0.436. It also gave a relative viability (NCI-H1395; first compound 500 µM) of 0.266, a relative viability (NCI-H1666; first compound 5 µM) of 0.749 and a relative viability (NCI-H1666; first compound 15.81 µM) of 0.772. It also gave a relative viability (NCI-H1666; first compound 50 µM) of 0.865, a relative viability (NCI-H1666; first compound 158.11 µM) of 0.304 and a relative viability (NCI-H1666; first compound 500 µM) of 0.396. It also gave a relative viability (NCI-H2170; first compound 5 µM) of 0.591, a relative viability (NCI-H2170; first compound 15.81 µM) of 0.554 and a relative viability (NCI-H2170; first compound 50 µM) of 0.534. The relative viability (NCI-H2170; first compound 158.11 µM) was 0.403, the relative viability (NCI-H2170; first compound 500 µM) was 0.18 and the relative viability (CAL-12T; first compound 5 µM) was 0.72. It also gave a relative viability (CAL-12T; first compound 15.81 µM) of 0.634, a relative viability (CAL-12T; first compound 50 µM) of 0.627 and a relative viability (CAL-12T; first compound 158.11 µM) of 0.473. The relative viability (CAL-12T; first compound 500 µM) was 0.488, the relative viability (LCLC-103H; first compound 5 µM) was 0.755 and the relative viability (LCLC-103H; first compound 15.81 µM) was 0.669. For the same molecule, the relative viability (LCLC-103H; first compound 50 µM) was 0.733, the relative viability (LCLC-103H; first compound 158.11 µM) was 0.55 and the relative viability (LCLC-103H; first compound 500 µM) was 0.717. The relative viability (NCI-H2228; first compound 5 µM) was 0.532, the relative viability (NCI-H2228; first compound 15.81 µM) was 0.411 and the relative viability (NCI-H2228; first compound 50 µM) was 0.634. It also gave a relative viability (NCI-H2228; first compound 158.11 µM) of 0.628, a relative viability (NCI-H2228; first compound 500 µM) of 0.185 and a relative viability (NCI-H1651; first compound 5 µM) of 0.189. For the same molecule, the relative viability (NCI-H1651; first compound 15.81 µM) was 0.192, the relative viability (NCI-H1651; first compound 50 µM) was 0.189 and the relative viability (NCI-H1651; first compound 158.11 µM) was 0.198. The relative viability (NCI-H1651; first compound 500 µM) was 0.175, the relative viability (ABC-1; first compound 5 µM) was 0.816 and the relative viability (ABC-1; first compound 15.81 µM) was 0.845. For the same molecule, the relative viability (ABC-1; first compound 50 µM) was 0.957, the relative viability (ABC-1; first compound 158.11 µM) was 0.448 and the relative viability (ABC-1; first compound 500 µM) was 0.383. It also gave a relative viability (NCI-H2085; first compound 5 µM) of 0.745, a relative viability (NCI-H2085; first compound 15.81 µM) of 0.712 and a relative viability (NCI-H2085; first compound 50 µM) of 0.725. For the same molecule, the relative viability (NCI-H2085; first compound 158.11 µM) was 0.362, the relative viability (NCI-H2085; first compound 500 µM) was 0.209 and the relative viability (NCI-H661; first compound 5 µM) was 0.714. For the same molecule, the relative viability (NCI-H661; first compound 15.81 µM) was 0.726, the relative viability (NCI-H661; first compound 50 µM) was 0.718 and the relative viability (NCI-H661; first compound 158.11 µM) was 0.399. For the same molecule, the relative viability (NCI-H661; first compound 500 µM) was 0.153, the relative viability (NCI-H1993; first compound 5 µM) was 1.15 and the relative viability (NCI-H1993; first compound 15.81 µM) was 0.918. The relative viability (NCI-H1993; first compound 50 µM) was 0.908, the relative viability (NCI-H1993; first compound 158.11 µM) was 0.6 and the relative viability (NCI-H1993; first compound 500 µM) was 0.421. It also gave a relative viability (NCI-H23; first compound 5 µM) of 0.33, a relative viability (NCI-H23; first compound 15.81 µM) of 0.28 and a relative viability (NCI-H23; first compound 50 µM) of 0.282. For the same molecule, the relative viability (NCI-H23; first compound 158.11 µM) was 0.0911, the relative viability (NCI-H23; first compound 500 µM) was 0.0098 and the relative viability (NCI-H520; first compound 5 µM) was 0.323. The relative viability (NCI-H520; first compound 15.81 µM) was 0.371, the relative viability (NCI-H520; first compound 50 µM) was 0.329 and the relative viability (NCI-H520; first compound 158.11 µM) was 0.136. It also gave a relative viability (NCI-H520; first compound 500 µM) of 0.113, a relative viability (201T; first compound 5 µM) of 0.849 and a relative viability (201T; first compound 15.81 µM) of 0.788. For the same molecule, the relative viability (201T; first compound 50 µM) was 0.776, the relative viability (201T; first compound 158.11 µM) was 0.594 and the relative viability (201T; first compound 500 µM) was 0.633. It also gave a relative viability (NCI-H2347; first compound 5 µM) of 0.535, a relative viability (NCI-H2347; first compound 15.81 µM) of 0.505 and a relative viability (NCI-H2347; first compound 50 µM) of 0.562. It also gave a relative viability (NCI-H2347; first compound 158.11 µM) of 0.495, a relative viability (NCI-H2347; first compound 500 µM) of 0.349 and a relative viability (NCI-H838; first compound 5 µM) of 0.79. For the same molecule, the relative viability (NCI-H838; first compound 15.81 µM) was 0.705, the relative viability (NCI-H838; first compound 50 µM) was 0.721 and the relative viability (NCI-H838; first compound 158.11 µM) was 0.278. It also gave a relative viability (NCI-H838; first compound 500 µM) of 0.115, a relative viability (NCI-H1355; first compound 5 µM) of 0.728 and a relative viability (NCI-H1355; first compound 15.81 µM) of 0.706. The relative viability (NCI-H1355; first compound 50 µM) was 0.714, the relative viability (NCI-H1355; first compound 158.11 µM) was 0.376 and the relative viability (NCI-H1355; first compound 500 µM) was 0.0737. For the same molecule, the relative viability (HCC-44; first compound 5 µM) was 0.97, the relative viability (HCC-44; first compound 15.81 µM) was 0.95 and the relative viability (HCC-44; first compound 50 µM) was 0.925. The relative viability (HCC-44; first compound 158.11 µM) was 0.629, the relative viability (HCC-44; first compound 500 µM) was 0.469 and the relative viability (NCI-H322M; first compound 5 µM) was 0.74. It also gave a relative viability (NCI-H322M; first compound 15.81 µM) of 0.769, a relative viability (NCI-H322M; first compound 50 µM) of 0.761 and a relative viability (NCI-H322M; first compound 158.11 µM) of 0.594. It also gave a relative viability (NCI-H322M; first compound 500 µM) of 0.106.
